Data published in patent US6740663B2, “Mono- and di-fluorinated benzothiepine compounds as inhibitors of apical sodium co-dependent bile acid transport (ASBT) and taurocholate uptake” (G.D. Searle, LLC, priority 2001, dated 2004).

Row | melting point [°C] | Compound
1 | 108 to 110 | CCCCC1(CCCC)CS(=O)(=O)c2ccc(N(C)C)cc2[C@@H](c2ccc(OCCCCS(N)(=O)=O)cc2)[C@H]1O [Example 1405]
2 | 193 to 197 | CCCCC1(CCCC)CS(=O)(=O)c2ccc(N(C)C)cc2[C@@H](c2ccc(OCCCCC[N+](C)(C)CC[N+](C)(C)CC)cc2)[C@H]1O [Example 1418, (4R-cis)-N-[5-[4-[3,3-Dibutyl-7-(dimethylamino)-2,3,4,5-tetrahydro-4-hydroxy-1,1-dioxido-1-benzothiepin-5-yl]phenoxy]pentyl]-N′-ethyl-N,N,N′,N′-tetramethyl-1,2-ethanediaminium Dichloride]
3 | 80 to 85 | CCCCC1(CCCC)CS(=O)(=O)c2ccc(N(C)C)cc2[C@@H](c2ccc(OCCCCCc3nn[nH]n3)cc2)[C@H]1O [Example 1420, (4R-cis)-3,3-Dibutyl-7-(dimethylamino)-2,3,4,5-tetrahydro-5-[4-[[5-(1H-tetrazol-5-yl)pentyl]oxy]phenyl]-1-benzothiepin-4-ol 1,1-Dioxide]
4 | 67 to 72.5 | CCCCC1(CCCC)CS(=O)(=O)c2ccc(N(C)C)cc2[C@@H](c2ccc(OCCCCCNC(=N)N)cc2)[C@H]1O [Example 1422, (4R-cis)-[5-[4-[3,3-Dibutyl-7-(dimethylamino)-2,3,4,5-tetrahydro-4-hydroxy-1,1-dioxido-1-benzothiepin-5-yl]phenoxy]pentyl]guanidine]

The next lines start with the molecule.

Row | Compound | melting point [°C]
5 | CCCCC1(CCCC)CS(=O)(=O)c2ccc(N(C)C)cc2[C@@H](c2cccc(NC(=O)OCCC[N+]34CCN(CC3)CC4)c2)[C@H]1O.[Cl-] | 218 to 225
6 | CCCCC1(CCCC)CS(=O)(=O)c2ccc(N(C)C)cc2[C@@H](c2cccc(NC(=O)Nc3cccc(C[N+]45CCN(CC4)CC5)c3)c2)[C@H]1O.[Cl-] | 246 to 248
7 | CCCC[C@]1(CC)CS(=O)(=O)c2ccc(N3CCCC3)cc2[C@@H](c2ccc(F)cc2)[C@H]1O [Compound 82, (3α,4β,5β)3-Butyl-3-ethyl-5-(4′-fluoropheny)-4-hydroxy-7-(1-pyrrolidinyl)-2,3,4,5-tetrahydrobenzothiepine-1,1-dioxide] | 174.5 to 177
8 | CCCC[C@]1(CC)CS(=O)(=O)c2ccc(N3CCOCC3)cc2[C@@H](c2ccc(F)cc2)[C@H]1O [Compound 83, (3α,4β,5β)3-Butyl-3-ethyl-5-(4′-fluorophenyl)-4-hydroxy-7-(1-morpholinyl)-2,3,4,5-tetrahydrobenzothiepine-1,1-dioxide] | 176.5 to 187.5
9 | CCCCC1(CCCC)CS(=O)(=O)c2ccc(N(C)C)cc2[C@@H](c2ccc(OCCCCCC(C(=O)O)C(=O)O)cc2)[C@H]1O [Example 1413, (4S-cis)-[5-[4-[3,3-Dibutyl-7-(dimethylamino)-2,3,4,5-tetrahydro-4-hydroxy-1,1-dioxido-1-benzothiepin-5-yl]phenoxy]pentyl]propanedioic Acid] | 118
10 | CCCCC1(CCCC)CS(=O)(=O)c2ccc(N(C)C)cc2[C@@H](c2ccc(OCCCCCOc3cc(C(=O)O)nc(C(=O)O)c3)cc2)[C@H]1O [Example 1421, (4R-cis)-4-[[5-[4-[3,3-Dibutyl-7-(dimethylamino)-2,3,4,5-tetrahydro-4-hydroxy-1,1-dioxido-1-1benzothiepin-5-yl]phenoxy]pentyl]oxy]-2,6-pyridinecarboxylic Acid] | 143
11 | CCCCC1(CCCC)CS(=O)(=O)c2ccc(N(C)C)cc2[C@@H](c2ccc(OCc3ccc(C(=O)O)cc3)cc2)[C@H]1O [Example 1424, (4R-cis)-4-[[4-[3,3-Dibutyl-7-(dimethylamino)-2,3,4,5-tetrahydro-4-hydroxy-1,1-dioxido-1-benzothiepin-5-yl]phenoxy]methyl]benzoic Acid] | 156 to 159
12 | CCCCC1(CCCC)CS(=O)(=O)c2ccc(N(C)C)cc2[C@@H](c2ccc(OCc3cccc(CCC(=O)O)n3)cc2)[C@H]1O [Example 1430, (4R-cis)-6-[[4-[3,3-Dibutyl-7-(dimethylamino)-2,3,4,5-tetrahydro-4-hydroxy-1,1-dioxido-1-benzothiepin-5-yl]phenoxy]methyl]-2-pyridinepropanoic Acid] | 105 to 107
13 | CCCCC1(CCCC)CS(=O)(=O)c2ccc(N(C)C)cc2[C@@H](c2ccc(OCCOCCC(C(=O)O)C(=O)O)cc2)[C@H]1O [Example 1432, (4S-cis)-[2-[2-[4-[3,3-Dibutyl-7-(dimethylamino)-2,3,4,5-tetrahydro-4-hydroxy-1,1-dioxido-1-benzothiepin-5-yl]phenoxy]ethoxy]ethyl]propanedioic Acid] | 119.5
